Reference: US12679878B2, “CRF2 receptor agonists and their use in therapy” (SANOFI, priority 2020, dated 2026)
In brackets after ≈: the same amount, converted by molar mass. Where two headings read alike, the source gives them in different places. Starred links: 1 amine or outer side, 2 acyl side, 3 side chain; linkers in the order of their positions; H or OH if unused. Non-standard residues stand in square brackets, D forms with d. Residues, ends and D or L forms follow the SMILES beside them. Groups on a side chain read outwards from the residue. *: point of attachment. C16 diacid = O=C(O)CCCCCCCCCCCCCCC(=O)*; γGlu = O=C(O)[C@H](CCC(=O)[*:2])N[*:1]; Aib = CC(C)(N)C(=O)O

Tests used:
human CRF2α receptor = target: T1, human CRF2α receptor (Homo sapiens, UniProt Q13324); test: cAMP agonism at human CRF2α receptor in TeloHEAC cells, FA modified peptides (Example 19.9); type: cell-based; conditions: 0% HSA, relative to urocortin 2
T1 construct: expressed in transfected cells; host or cells: TeloHEAC
T1 sequence (Q13324 1-411): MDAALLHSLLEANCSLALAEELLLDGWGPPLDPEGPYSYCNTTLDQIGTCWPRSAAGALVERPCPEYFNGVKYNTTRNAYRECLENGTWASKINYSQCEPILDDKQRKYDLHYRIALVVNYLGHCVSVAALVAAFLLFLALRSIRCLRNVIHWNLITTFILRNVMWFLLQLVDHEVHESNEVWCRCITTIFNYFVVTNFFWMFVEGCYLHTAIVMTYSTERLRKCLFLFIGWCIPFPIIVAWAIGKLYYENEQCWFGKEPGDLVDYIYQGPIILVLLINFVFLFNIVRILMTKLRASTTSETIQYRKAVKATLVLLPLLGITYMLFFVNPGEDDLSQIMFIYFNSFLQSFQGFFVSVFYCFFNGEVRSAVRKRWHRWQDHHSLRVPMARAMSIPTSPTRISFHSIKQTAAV
In short: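 Efficacy and EC50 are referenced to 100 nM urocortin 2 as 100%, with cAMP measured as the 665/620 nm HTRF ratio after 1 h at room temperature. Compounds (0.5 mM DMSO stock, 16 twofold dilutions) acted 30 min at 37 °C on CRF2α-expressing TeloHEAC cells, buffer containing IBMX and 0% or 0.2% HSA.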

CRF1R receptor = target: T2, CRF1R receptor (Homo sapiens, UniProt P34998); test: cAMP activity at anti-target CRF1R, CHO-K1 cell line clone 2 (Example 19.10); type: cell-based; conditions: for Emax: 100% = Sauvagine at 100 nM; for CRF1/CRF2 ratio: ratio of CRF1 EC50 to CRF2 EC50
T2 construct: host or cells: CHO-K1 clone 2
T2 sequence (P34998 24-415): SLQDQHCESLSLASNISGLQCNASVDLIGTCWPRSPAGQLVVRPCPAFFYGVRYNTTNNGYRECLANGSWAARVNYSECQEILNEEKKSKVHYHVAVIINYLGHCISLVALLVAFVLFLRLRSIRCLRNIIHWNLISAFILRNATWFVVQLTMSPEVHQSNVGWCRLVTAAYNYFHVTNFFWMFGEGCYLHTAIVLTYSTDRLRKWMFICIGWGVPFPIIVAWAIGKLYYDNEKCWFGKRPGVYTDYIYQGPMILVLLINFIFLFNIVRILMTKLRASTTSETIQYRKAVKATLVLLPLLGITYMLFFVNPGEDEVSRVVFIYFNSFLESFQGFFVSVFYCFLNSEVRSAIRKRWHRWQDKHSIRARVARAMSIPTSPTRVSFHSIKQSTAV
In short: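 The cAMP read-out used the same protocol as the previous assay, except that Sauvagine at 100 nM set the 100% activation control. Cells were CHO-K1 clone 2 overexpressing CRF1R, cultured in F12 medium with 10% FBS and G418 and stored frozen until use.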

[1] = In vitro plasma stability, rat plasma (Example 19.11); type: in vitro ADME, Sprague Dawley rats; parameters: remaining at 2 h: dose or concentration left out as unconfirmed; conditions: male, Sprague Dawley, rat, plasma, 37° C.
Protocol: (§1) In vitro plasma metabolic stability was studied in male Sprague Dawley rats and human. Test compound were incubated […] for 2 hours at 37° C. At each time point (0, 0.25, 1 and 2 h), samples were prepared for analysis by means of a single step protein precipitation technique by adding 150 μL of ethanol, 0.1% formic acid to 50 μL aliquots of plasma. Samples were mixed by vortex for homogeneity and then subjected to centrifugation at 14000 rpm for 15 min. The supernatant (100 μL) was collected, diluted with 100 μL of water, 0.1% formic acid and analyzed by LC-HRMS (TripleTOF 6600+, AB Sciex). For each test compound, the area ratios at each time point were compared to the 0 h area ratio and converted to a percentage remaining.

[2] = In vitro plasma stability, human plasma (Example 19.11); type: in vitro ADME; parameters: dose or concentration left out as unconfirmed; conditions: 37° C.
Protocol: as §1

[3] = Buffer solubility by LC-UV, pH 7.4 phosphate and pH 4.5 acetate (Example 19.11); type: physicochemical; conditions: target 10 mg/mL
Protocol: (§2) As for example 15 above, also the chemical stability of representative examples of these FA modified peptides has been assessed, using LC-UV instead of light scattering. Solubility and chemical stability were studied in 100 mM phosphate buffer (pH 7.4) and 100 mM acetate buffer (pH 4.5). Test compound powders were dissolved in both buffers at a target concentration of 10 mg/mL and incubated for 1 hour at room temperature. After centrifugation at 2500 rcf for 15 minutes, […] of supernatant was diluted with […] of the incubation buffer and analyzed by LC-UV (Acquity UPLC-DAD, Waters). Solubility was calculated by comparing the peak area of the test compound in the buffer sample with the peak area of the same compound dissolved at 0.5 mg/ml in water:acetonitrile 1:1, 0.1% formic acid.

[4] = Chemical stability as % loss by LC-UV, 28 days 40° C. vs 5° C. (Example 19.11); type: physicochemical
Protocol: as §2
From the centrifuged supernatant, two additional […] aliquots were collected and diluted with […] of incubation buffer. One aliquot was stored at 5° C., while the other was stored at 40° C. After 28 days, the samples were analyzed by LC-UV. Chemical stability was calculated as % loss using the following equations: • Chemical stability (as % loss)=[(purity after 28 days at 5° C.)−(purity after 28 days at 40° C.)]×100/(purity after 28 days at 5° C.) % purity=[(peak area compound)×100/(total peak area)]

[5] = 0% HSA, CRF1R CHO-K1 clone 2, read-out: EC50 [nM] 0% HSA
[6] = Table 20 side-to-side comparison, read-out: CRF1 EC50
[7] = pH 7.4, 100 mM phosphate buffer

EC50 (human CRF2α receptor) [nM] | EC50 (CRF1R receptor; [5]) [nM] | Emax (CRF1R receptor; CRF1R CHO-K1 clone 2) [%] | EC50 (CRF1R receptor; [6]) [nM] | CRF1/CRF2 ratio (CRF1R receptor) | remaining at 2 h [1] [%] | remaining at 2 h [2] [%] | solubility at 1 h ([3]; pH 4.5, 100 mM acetate buffer) [µg/mL] | solubility at 1 h [3, 7] [µg/mL] | % loss (chemical stability) ([4]; pH 4.5) [%] | % loss (chemical stability) ([4]; pH 7.4) [%] | SMILES
3.49 | > 100 | 15 | > 100 | >500 | 101 | 97 | 9000 (≈ 1860 µM) | 6300 (≈ 1300 µM) | 0 | 48 | CC[C@H](C)[C@H](N)C(=O)N[C@H](C(=O)N[C@@H](CC(C)C)C(=O)N[C@@H](CO)C(=O)N[C@@H](CC(C)C)C(=O)N[C@@H](CC(=O)O)C(=O)N[C@@H](C(=O)N1CCC[C@H]1C(=O)N[C@H](C(=O)N[C@@H](CCCCN)C(=O)N[C@@H](CC(C)C)C(=O)N[C@@H](CCCCNC(=O)CC[C@H](NC(=O)CCCCCCCCCCCCCCC(=O)O)C(=O)O)C(=O)N[C@@H](CCC(N)=O)C(=O)N[C@H](C(=O)N[C@@H](CC(C)C)C(=O)N[C@@H](CC(C)C)C(=O)N[C@@H](CCCCN)C(=O)N[C@@H](CCC(N)=O)C(=O)N[C@@H](CCC(=O)O)C(=O)N[C@@H](CCCNC(=N)N)C(=O)N[C@@H](CCC(N)=O)C(=O)N[C@@H](CCCCN)C(=O)N[C@@H](CCCCN)C(=O)NC(C)(C)C(=O)N[C@@H](CCCNC(=N)N)C(=O)N[C@@H](CCC(N)=O)C(=O)N[C@@H](CCCCN)C(=O)N[C@@H](C)C(=O)N[C@@H](CCC(=O)O)C(=O)N[C@@H](CCCCN)C(=O)N[C@@H](CC(N)=O)C(=O)N[C@@H](CCCCN)C(=O)N[C@@H](CCC(N)=O)C(=O)N[C@H](C(=O)N[C@@H](CC(C)C)C(=O)N[C@@H](C)C(=O)N[C@@H](CCC(N)=O)C(=O)N[C@H](C(N)=O)C(C)C)[C@@H](C)CC)[C@@H](C)CC)[C@@H](C)CC)C(C)C)C(C)C [compound 189] (H-IVLSLD[dV]PIKLK([γGlu-C16 diacid])QILLKQERQKK[Aib]RQKAEKNKQILAQV-NH2; N-terminus assumed)
2.47 | > 100 | 12 | > 100 | >500 | 92 | 100 | 8500 (≈ 1720 µM) | 8500 (≈ 1720 µM) | 0 | 35 | CC[C@H](C)[C@H](N)C(=O)N[C@H](C(=O)N[C@@H](CC(C)C)C(=O)N[C@@H](CO)C(=O)N[C@@H](CC(C)C)C(=O)N[C@@H](CC(=O)O)C(=O)N[C@@H](C(=O)N1CCC[C@H]1C(=O)N[C@H](C(=O)N[C@@H](CCCCN)C(=O)N[C@@H](CC(C)C)C(=O)N[C@@H](CCCCNC(=O)CC[C@H](NC(=O)CCCCCCCCCCCCCCC(=O)O)C(=O)O)C(=O)N[C@@H](CCC(N)=O)C(=O)N[C@H](C(=O)N[C@@H](CC(C)C)C(=O)N[C@@H](CC(C)C)C(=O)N[C@@H](CCCCN)C(=O)N[C@@H](CCC(N)=O)C(=O)N[C@@H](CCC(=O)O)C(=O)N[C@@H](CCCNC(=N)N)C(=O)N[C@@H](CCC(N)=O)C(=O)N[C@@H](CCCCN)C(=O)N[C@@H](CCCCN)C(=O)N[C@@H](CCC(N)=O)C(=O)N[C@@H](CCCNC(=N)N)C(=O)N[C@@H](CCC(=O)O)C(=O)N[C@@H](CCC(N)=O)C(=O)N[C@@H](C)C(=O)N[C@@H](CCC(=O)O)C(=O)N[C@@H](CCCCN)C(=O)N[C@@H](CC(N)=O)C(=O)N[C@@H](CCCCN)C(=O)N[C@@H](CCC(N)=O)C(=O)N[C@H](C(=O)N[C@@H](CC(C)C)C(=O)N[C@@H](CCC(=O)O)C(=O)N[C@@H](CCC(N)=O)C(=O)N[C@H](C(N)=O)C(C)C)[C@@H](C)CC)[C@@H](C)CC)[C@@H](C)CC)C(C)C)C(C)C [compound 190] (H-IVLSLD[dV]PIKLK([γGlu-C16 diacid])QILLKQERQKKQREQAEKNKQILEQV-NH2; N-terminus assumed)
2.68 | > 100 | 12.5 | – | – | 85 | 96 | 8500 (≈ 1740 µM) | 9000 (≈ 1840 µM) | 0 | 54 | CC[C@H](C)[C@H](N)C(=O)N[C@H](C(=O)N[C@@H](CC(C)C)C(=O)N[C@@H](CO)C(=O)N[C@@H](CC(C)C)C(=O)N[C@@H](CC(=O)O)C(=O)N[C@@H](C(=O)N1CCC[C@H]1C(=O)N[C@H](C(=O)N[C@@H](CCCCN)C(=O)N[C@@H](CC(C)C)C(=O)N[C@@H](CCCCNC(=O)CC[C@H](NC(=O)CCCCCCCCCCCCCCC(=O)O)C(=O)O)C(=O)N[C@@H](CCC(N)=O)C(=O)N[C@H](C(=O)N[C@@H](CC(C)C)C(=O)N[C@@H](CC(C)C)C(=O)N[C@@H](CCCCN)C(=O)N[C@@H](CCC(N)=O)C(=O)N[C@@H](CCC(=O)O)C(=O)N[C@@H](CCCNC(=N)N)C(=O)N[C@@H](CCC(N)=O)C(=O)N[C@@H](CCCCN)C(=O)N[C@@H](CCCCN)C(=O)N[C@@H](CCC(N)=O)C(=O)N[C@@H](CCCNC(=N)N)C(=O)N[C@@H](CCC(=O)O)C(=O)N[C@@H](CCCCN)C(=O)N[C@@H](C)C(=O)N[C@@H](CCC(=O)O)C(=O)N[C@@H](CCCCN)C(=O)N[C@@H](CC(N)=O)C(=O)N[C@@H](CCCCN)C(=O)N[C@@H](CCC(N)=O)C(=O)N[C@H](C(=O)N[C@@H](CC(C)C)C(=O)N[C@@H](C)C(=O)N[C@@H](CCC(N)=O)C(=O)N[C@H](C(N)=O)C(C)C)[C@@H](C)CC)[C@@H](C)CC)[C@@H](C)CC)C(C)C)C(C)C [compound 191] (H-IVLSLD[dV]PIKLK([γGlu-C16 diacid])QILLKQERQKKQREKAEKNKQILAQV-NH2)
